# Measurements from PubChem BioAssay (NCI).
#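 Exposure lasted 48 hours, with cells grown in 96-well plates and compounds tested at five concentrations. The concentration for full growth arrest is given as TGI.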
# Columns and labels:
# Experiment in all cases: NCI tumour cell line growth inhibition, 48 h
# [1] = system: NCI-H460 lung
# [2] = system: IGROV1 ovarian
# [3] = system: SK-MEL-5 melanoma
# [4] = system: KM12 colon
# [5] = system: RPMI-8226 leukemia
# [6] = system: A549 NSCLC
# [7] = system: SNB-78 CNS
# [8] = system: P388 leukemia
# [9] = system: OVCAR-3 ovarian
# [10] = system: EKVX NSCLC
# [11] = system: U251 CNS
# [12] = system: LOX IMVI melanoma
# [13] = system: SW-620 colon
# [14] = system: SK-OV-3 ovarian
# [15] = system: M19-MEL melanoma
# [16] = system: SK-MEL-28 melanoma
# [17] = system: P388/ADR leukemia
# [18] = system: NCI-H226 lung
# [19] = system: MCF7 breast
# [20] = system: HOP-18 NSCLC
# [21] = system: COLO 205 colon
# [22] = system: DMS 114 small cell lung
# [23] = system: OVCAR-5 ovarian
# [24] = system: UACC-62 melanoma
# [25] = system: DLD-1 colon
# [26] = system: MALME-3M melanoma
# [27] = system: SNB-19 CNS
# [28] = system: NCI/ADR-RES ovarian
# [29] = system: OVCAR-4 ovarian
# [30] = system: HOP-62 NSCLC
# [31] = system: DMS 273 small cell lung
# [32] = system: OVCAR-8 ovarian
# [33] = system: K-562 leukemia
# [34] = system: HL-60(TB) leukemia
# [35] = system: HT29 colon
# [36] = system: SF-268 CNS
# [37] = system: UO-31 renal
# [38] = system: HOP-92 NSCLC
# [39] = system: A498 renal
# [40] = system: SK-MEL-2 melanoma
# [41] = system: CCRF-CEM leukemia
# [42] = system: SF-295 CNS
# [43] = system: XF 498 CNS
# [44] = system: SN12C renal
# [45] = system: HCT-116 colon
# [46] = system: UACC-257 melanoma
# [47] = system: RXF 393 renal
# [48] = system: HCC-2998 colon
# [49] = system: MOLT-4 leukemia
# [50] = system: NCI-H522 lung
# [51] = system: NCI-H23 lung
# [52] = system: HCT-15 colon
# [53] = system: SNB-75 CNS
# [54] = system: SN12K1 renal
# [55] = system: SF-539 CNS
# [56] = system: KM20L2 colon
# [57] = system: CAKI-1 renal
smiles,measurement,setting,value
CC1CC=CC(O)C1 (stereo unspecified),TGI,[1],> 100 µM
same,TGI,[2],> 100 µM
same,TGI,[3],> 100 µM
same,TGI,[4],> 100 µM
same,TGI,[5],> 100 µM
same,TGI,[6],> 100 µM
same,TGI,[7],> 100 µM
same,TGI,[8],> 100 µM
same,TGI,[9],> 100 µM
same,TGI,[10],> 100 µM
same,TGI,[11],> 100 µM
same,TGI,[12],> 100 µM
same,TGI,[13],> 100 µM
same,TGI,[14],> 100 µM
same,TGI,[15],> 100 µM
same,TGI,[16],> 100 µM
same,TGI,[17],> 100 µM
same,TGI,[18],> 100 µM
same,TGI,[19],> 100 µM
same,TGI,[20],> 100 µM
same,TGI,[21],> 100 µM
same,TGI,[22],> 100 µM
same,TGI,[23],> 100 µM
same,TGI,[24],> 100 µM
same,TGI,[25],> 100 µM
same,TGI,[26],> 100 µM
same,TGI,[27],> 100 µM
same,TGI,[28],> 100 µM
same,TGI,[29],> 100 µM
same,TGI,[30],> 100 µM
same,TGI,[31],> 100 µM
same,TGI,[32],> 100 µM
same,TGI,[33],> 100 µM
same,TGI,[34],> 100 µM
same,TGI,[35],> 100 µM
same,TGI,[36],> 100 µM
same,TGI,[37],> 100 µM
same,TGI,[38],> 100 µM
same,TGI,[39],> 100 µM
same,TGI,[40],> 100 µM
same,TGI,[41],> 100 µM
same,TGI,[42],> 100 µM
same,TGI,[43],> 100 µM
same,TGI,[44],> 100 µM
same,TGI,[45],> 100 µM
same,TGI,[46],> 100 µM
same,TGI,[47],> 100 µM
same,TGI,[48],> 100 µM
same,TGI,[49],> 100 µM
same,TGI,[50],> 100 µM
same,TGI,[51],> 100 µM
same,TGI,[52],> 100 µM
same,TGI,[53],> 100 µM
same,TGI,[54],> 100 µM
same,TGI,[55],> 100 µM
same,TGI,[56],> 100 µM
CC(=O)OC1CCC2(C)C3CCC4(C)C(c5ccc(=O)oc5)CC5OC54C3CCC2(O)C1 (stereo unspecified),TGI,[1],1.75 µM
same,TGI,[2],21 µM
same,TGI,[3],4.76 µM
same,TGI,[4],10.7 µM
same,TGI,[5],14.1 µM
same,TGI,[6],2.15 µM
same,TGI,[7],12 µM
same,TGI,[8],> 200 µM
same,TGI,[9],2.29 µM
same,TGI,[10],3.64 µM
same,TGI,[11],9.14 µM
same,TGI,[12],16.5 µM
same,TGI,[13],4.04 µM
same,TGI,[14],10.2 µM
same,TGI,[15],11.8 µM
same,TGI,[16],21.7 µM
same,TGI,[17],> 200 µM
same,TGI,[18],25.1 µM
same,TGI,[19],14.8 µM
same,TGI,[20],7.38 µM
same,TGI,[57],2.23 µM
same,TGI,[21],10.3 µM
same,TGI,[22],0.69 µM
same,TGI,[23],22.4 µM
same,TGI,[24],6.95 µM
same,TGI,[25],1.57 µM
same,TGI,[26],3.21 µM
same,TGI,[27],31.8 µM
same,TGI,[28],6.99 µM
same,TGI,[29],5.61 µM
same,TGI,[30],3.41 µM
same,TGI,[31],6 µM
same,TGI,[32],7.73 µM
same,TGI,[33],24 µM
same,TGI,[34],1.48 µM
same,TGI,[35],16.1 µM
same,TGI,[36],2.57 µM
same,TGI,[37],9.38 µM
same,TGI,[38],7.59 µM
same,TGI,[39],15.1 µM
same,TGI,[40],13 µM
same,TGI,[41],2.7 µM
same,TGI,[42],5.63 µM
same,TGI,[43],6.97 µM
same,TGI,[44],34.2 µM
same,TGI,[45],4.61 µM
same,TGI,[46],19.5 µM
same,TGI,[47],1.61 µM
same,TGI,[48],14 µM
same,TGI,[49],0.934 µM
same,TGI,[50],2.04 µM
same,TGI,[51],2.98 µM
same,TGI,[52],14.6 µM
same,TGI,[53],5.77 µM
same,TGI,[54],3.7 µM
same,TGI,[55],2.78 µM
same,TGI,[56],13.2 µM
O=C(OC(=O)n1ccc2ccccc21)n1ccc2ccccc21,TGI,[1],> 100 µM
same,TGI,[2],> 100 µM
same,TGI,[3],> 100 µM
same,TGI,[4],> 100 µM
same,TGI,[5],> 100 µM
same,TGI,[6],> 100 µM
same,TGI,[7],> 100 µM
same,TGI,[9],> 100 µM
same,TGI,[10],> 100 µM
same,TGI,[11],> 100 µM
same,TGI,[12],> 100 µM
same,TGI,[13],> 100 µM
same,TGI,[14],> 100 µM
same,TGI,[15],> 100 µM
same,TGI,[16],> 100 µM
same,TGI,[18],> 100 µM
same,TGI,[19],> 100 µM
same,TGI,[20],> 100 µM
same,TGI,[57],> 100 µM
same,TGI,[21],> 100 µM
same,TGI,[22],> 100 µM
same,TGI,[23],> 100 µM
same,TGI,[24],> 100 µM
same,TGI,[25],> 100 µM
same,TGI,[27],> 100 µM
same,TGI,[28],> 100 µM
same,TGI,[29],> 100 µM
same,TGI,[30],> 100 µM
same,TGI,[31],> 100 µM
same,TGI,[32],> 100 µM
same,TGI,[33],> 100 µM
same,TGI,[34],> 100 µM
same,TGI,[35],> 100 µM
same,TGI,[36],> 100 µM
same,TGI,[37],> 100 µM
same,TGI,[38],> 100 µM
same,TGI,[39],> 100 µM
same,TGI,[40],> 100 µM
same,TGI,[41],> 100 µM
same,TGI,[42],> 100 µM
same,TGI,[43],> 100 µM
same,TGI,[44],> 100 µM
same,TGI,[45],> 100 µM
same,TGI,[46],> 100 µM
same,TGI,[47],> 100 µM
same,TGI,[48],> 100 µM
same,TGI,[49],> 100 µM
same,TGI,[51],> 100 µM
same,TGI,[52],> 100 µM
same,TGI,[53],> 100 µM
same,TGI,[54],> 100 µM
same,TGI,[55],> 100 µM
same,TGI,[56],> 100 µM
